Test results taken from patent US11096985B2, “Antimicrobial peptides, their variants and uses” (priority 2015, dated 2021).
Where a SMILES comes first, the peptide text is derived from it. [ ]: non-standard residue; d: D form.

Columns and labels:
[1] = test system: S. aureus COL (MRSA); assay: Synergistic activity with Ertapenem (4 μg/ml) against MRSA, MIC; assay type: cell-based, Staphylococcus aureus; details: Ertapenem 4 μg/ml; D-form
Method in brief: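 Broth microdilution in MH broth with 5.0×10^5 cfu/ml inoculum, 37° C for 20–24 h. MIC was the lowest concentration without visible growth (range 0.125–128 μg/ml). L- and D-form peptides were tested on S. aureus RN4220 and COL (MRSA), alone and with Ertapenem at 4 μg/ml.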

[2] = test system: Staphylococcus aureus (ATCC 25923); assay type: cell-based; details: Peptides 50 μg; Gentamycin 5 μg; diameter including the wells
Experimental: (§1) The radial diffusion assay (RDA) was carried out as described by Andersen et al. (2010). Briefly, 30 ml of 1/10 Muller-Hinton broth (MHB) supplemented with 1% agarose and 5.0×10^5 CFU/ml S. aureus or E. coli or K. pneumoniae, P. aeruginosa cells was poured into a single-well omnitray (Nunc) and overlaid with a TSP 96-well plate. […] The peptides were also tested against Fusarium oxysporum and Verticillium dahliae, for which 1/3 potato dextrose agarose was used. To test the synergistic effect of peptides, each peptide was mixed in equimolar concentrations. Mix1 (met1-12), Mix2 (met3, 4 and 5), Mix3 (met 8, 9 and 10), Mix 4 (met11, 12) and Mix5 (8, 9, 10, 11, 12) were prepared and tested against E. coli and S. aureus. Gentamicin and vancomycin were included as positive controls for bacteria and amphotericin B was used as the control for fungi.

[3] = test system: Escherichia coli (ATCC 25922); assay type: cell-based; details: Peptides 50 μg; Gentamycin 5 μg; diameter including the wells
Experimental: as §1

[4] = test system: Klebsiella pneumoniae (ATCC 10031); assay type: cell-based; details: Peptides 50 μg; Gentamycin 5 μg; diameter including the wells
Experimental: as §1

[5] = test system: Staphylococcus aureus (ATCC 25923); assay type: cell-based
Experimental: (§2) Minimum inhibition concentrations (MICs) were determined against Escherichia coli (ATCC 25922), Staphylococcus aureus (ATCC 25923), Klebsiella pneumoniae (ATCC 10031) and Pseudomonas aeruginosa (ATCC 27853). Also clinical strains of E. coli, K. pneumoniae, E. cloacae, P. aeruginosa, Serratia marcescens, Proteus mirabilis, S. pneumoniae, Acinetobacter baumannii, A. johnsonii and S. aureus were used for MICs assays. Additionally, clinical strains of yeast including Candida albicans, C. glabrata, C. parapsilosis and C. quillermondiae were used. The susceptibility of these microorganisms to Chain peptides were determined using micro broth dilution assay. Colonies of the respective microorganism from Muller Hinton (MH) agar plates incubated overnight were suspended in MH broth media and final concentration of microorganism was adjusted to 5.0×10^5 cfu/ml. An aliquot of 10 μl of each Chain peptide, or gentamicin, tetracycline as reference antibiotics were added in differing concentrations along with 90 μl of bacterial suspension to 96 well polypropylene plates and incubated at 37° C. for 20 to 24 hours. Concentrations of Chain peptides and reference antibiotics ranged from 0.125 to 128 μg/ml and the MICs were recorded as the lowest concentration with no visual growth of bacteria. Similarly, antifungal MICs were tested in Potato dextrose broth.

[6] = test system: Escherichia coli (ATCC 25922); assay type: cell-based
Experimental: as §2

[7] = test system: Pseudomonas aeruginosa (ATCC 27853); assay type: cell-based
Experimental: as §2

[8] = test system: Klebsiella pneumoniae (ATCC 10031); assay type: cell-based
Experimental: as §2

[9] = test system: Pseudomonas aeruginosa (ATCC 27853); assay: Radial diffusion assay (RDA) against P. aeruginosa; assay type: cell-based; details: Peptides 50 μg; Gentamycin 5 μg; diameter including the wells
Experimental: as §1

[10] = test system: Escherichia coli, Staphylococcus aureus, Klebsiella pneumoniae and Pseudomonas aeruginosa; assay: Radial diffusion assay, summary over the bacteria tested; assay type: cell-based; details: Gentamicin 5 μg
Experimental: The radial diffusion assay (RDA) was carried out as described by Andersen et al. (2010). Briefly, 30 ml of 1/10 Muller-Hinton broth (MHB) supplemented with 1% agarose and 5.0×10^5 CFU/ml S. aureus or E. coli or K. pneumoniae, P. aeruginosa cells was poured into a single-well omnitray (Nunc) and overlaid with a TSP 96-well plate. One hundred μg of each synthesized peptide was tested. The peptides were also tested against Fusarium oxysporum and Verticillium dahliae, for which 1/3 potato dextrose agarose was used. To test the synergistic effect of peptides, each peptide was mixed in equimolar concentrations. Mix1 (met1-12), Mix2 (met3, 4 and 5), Mix3 (met 8, 9 and 10), Mix 4 (met11, 12) and Mix5 (8, 9, 10, 11, 12) were prepared and tested against E. coli and S. aureus. Gentamicin and vancomycin were included as positive controls for bacteria and amphotericin B was used as the control for fungi.

Molecule	MIC against MRSA strains along with Ertapenem, D-peptide [1] [µg/mL]	Inhibition zone, Staphylococcus aureus [2] [mm]	Inhibition zone, Escherichia coli [3] [mm]	Inhibition zone, Klebsiella pneumoniae [4] [mm]	Minimum inhibitory concentration, Staphylococcus aureus (ATCC 25923) [5] [µg/mL]	Minimum inhibitory concentration, Escherichia coli (ATCC 25922) [6] [µg/mL]	Minimum inhibitory concentration, Pseudomonas aeruginosa (ATCC 27853) [7] [µg/mL]	Minimum inhibitory concentration, Klebsiella pneumoniae (ATCC 10031) [8] [µg/mL]	Inhibition zone, Pseudomonas aeruginosa [9] [mm]	zone of inhibition over the four bacteria [10]
CC(C)C[C@@H](NC(=O)[C@@H](CCCCN)NC(=O)[C@@H](CCCCN)NC(=O)[C@@H](Cc1ccccc1)NC(=O)[C@@H](CC(C)C)NC(=O)[C@@H](Cc1c[nH]c2ccccc12)NC(=O)[C@@H](CCCNC(=N)N)NC(=O)[C@@H](Cc1c[nH]c2ccccc12)NC(=O)[C@@H](CCCCN)NC(=O)[C@@H](CCCNC(=N)N)NC(=O)[C@H](N)CCCCN)C(=O)O [Chain310D] (H-[dK][dR][dK][dW][dR][dW][dL][dF][dK][dK][dL]-OH)	0.03	–	–	–	–	–	–	–	–	–
Gentamicin [reference compound]	–	24	22	22	0.25	1	0.25	0.25	24	22-24 mm
